# Data: US6429229B1, “Keto acid salts and amine derivatives, and their use for preparing medicines” (Chiesi S.A., priority 1998, dated 2002)
# Assays:
# colic distension in rat [1] = test: Colic distension in rat (colon irritated with 1% acetic acid, balloon distension, abdominal cramps counted); type: in vivo; settings: for Mean number of abdominal cramps ± standard error: 10 min colic distension, * = different from placebo at p < 0.05 (Dunnett); for Activity in the model of colic distension (in words) / Dose at/from which active in colic distension: oral route; for Activity in the model of colic distension (in words): 1 to 20 mg/kg
# Source text: This physiopathological mechanism inspired the creation of the model of distension of the colon first irritated with 1% acetic acid, in rat. […] IIS is characterized by the presence of abdominal pain. Patients having this pathology have a lowered threshold of digestive sensitivity.
# The analgesic activity was studied on the model of digestive pain in observed rat. This pain is brought about by distension of the colon with a balloon.
# Male Sprague-Dawley rats of about 180 g, fasted from the day before, are used. Under light fluothane anesthesia, an intrarectal probe is introduced 5 cm into the anus and 1.5 ml of 1% acetic acid is injected. An hour and 30 minutes after irritation, a latex balloon (empty diameter 2 mm, length 1 cm) mounted on a polyethylene catheter is introduced into the colon to the site of the irritation.
# The product to be tested or the vehicle (distilled water) is administered per os in a volume of 1 ml, then the rat is observed on a Petri dish.
# Distension of the colon is carried out 2 hours and 20 minutes after irritation. It is effected at a fixed volume of 1.5 ml of distilled water. The colic distension gives rise to digestive pain manifested by abdominal cramps whose number reflects the intensity of the pain. The colic distension is maintained for 10 minutes in the course of which the abdominal cramps are counted.
# Statistical analysis is carried out with the help of the Dunnett test which compares a same group of vehicle animals (40) to several groups of rats (six animals per group) having received the studied molecules. The threshold of significance is fixed at 5%.
# The molecules are tested by the oral route at 1-10-20 mg/kg. They are dissolved in distilled water.
# The vehicle used as placebo is comprised by distilled water.
# Comparative tests 1 to 5 are products available commercially and are used as such, except ornithine chlorhydrate which is salted out by methods known in the literature and stored in solution in water.
# somatic pain test in rat = settings: doses between 300 and 1000 mg/kg by subcutaneous route in rat; cited from earlier work
# writhing test in mice = settings: 500 and 1000 mg/kg by intravenous route in mice; cited from earlier work
# colic distension in rat [2] = settings: cited from earlier work; for Activity on the model of colic distension (in words): background statement
# [3] = system: writhing test in rat or a mouse; settings: i.p. phenylbenzoquinone or 3% acetic acid; cited from earlier work
molecule,measurement,setting,value
"O=C(O)CCC(=O)C(=O)O [Comparison 1, α-keto-glutaric acid]",Mean number of abdominal cramps ± standard error,colic distension in rat [1]; 1 mg/kg p.o.,17 ± 1
same,Mean number of abdominal cramps ± standard error,colic distension in rat [1]; 10 mg/kg p.o.,17 ± 4
same,Mean number of abdominal cramps ± standard error,colic distension in rat [1]; 20 mg/kg p.o.,22 ± 6
same,Activity in the model of colic distension (in words),colic distension in rat [1],inactive
"Cl.NCCC[C@H](N)C(=O)O [Comparison 2, Ornithine, HCl]",Mean number of abdominal cramps ± standard error,colic distension in rat [1]; 1 mg/kg p.o.,20 ± 3
same,Mean number of abdominal cramps ± standard error,colic distension in rat [1]; 10 mg/kg p.o.,19 ± 6
same,Mean number of abdominal cramps ± standard error,colic distension in rat [1]; 20 mg/kg p.o.,18 ± 6
same,Activity in the model of colic distension (in words),colic distension in rat [1],inactive
same,Activity in a somatic pain test (in words),somatic pain test in rat,active
same,Activity in the writhing test (in words),writhing test in mice,active
"CCC(=O)C(=O)O [Comparison 3, α-keto-butyric acid]",Mean number of abdominal cramps ± standard error,colic distension in rat [1]; 1 mg/kg p.o.,19 ± 2
same,Mean number of abdominal cramps ± standard error,colic distension in rat [1]; 10 mg/kg p.o.,20 ± 3
same,Mean number of abdominal cramps ± standard error,colic distension in rat [1]; 20 mg/kg p.o.,19 ± 3
same,Activity in the model of colic distension (in words),colic distension in rat [1],inactive
"NC(=O)CC[C@H](N)C(=O)O [Comparison 4, Glutamine]",Activity in the test of colic distension (in words),colic distension in rat [2]; 6 mg/kg by rectal route in rat (local administration on the irritated colic mucosa),active
same,Mean number of abdominal cramps ± standard error,colic distension in rat [1]; 1 mg/kg p.o.,21 ± 2
same,Dose at/from which active in colic distension,colic distension in rat [1],10 mg/kg
"N=C(N)NCCC[C@H](N)C(=O)O [Comparison 5, Arginine]",Mean number of abdominal cramps ± standard error,colic distension in rat [1]; 1 mg/kg p.o.,20 ± 6
same,Mean number of abdominal cramps ± standard error,colic distension in rat [1]; 10 mg/kg p.o.,20 ± 9
same,Dose at/from which active in colic distension,colic distension in rat [1],≥ 20 mg/kg
CN1CC[C@]23c4c5ccc(O)c4O[C@H]2[C@@H](O)C=C[C@H]3[C@H]1C5 [Morphine],Activity on the model of colic distension (in words),colic distension in rat [2],active
CC(=O)Oc1ccccc1C(=O)O [aspirin],Activity on the model of colic distension (in words),colic distension in rat [2],inactive
same,Activity in the writhing test (in words),[3],active
CC(=O)Nc1ccc(O)cc1 [paracetamol],Activity on the model of colic distension (in words),colic distension in rat [2],inactive
same,Activity in the writhing test (in words),[3],active
Di-arginine Keto-glutarate [Example 3],Mean number of abdominal cramps ± standard error,colic distension in rat [1]; 1 mg/kg p.o.,17 ± 9
Di-ornithine Keto-glutarate [Example 2],Dose at/from which active in colic distension,colic distension in rat [1],1 mg/kg
Mono-ornithine Keto-butyrate [Example 6],Dose at/from which active in colic distension,colic distension in rat [1],≥ 1 mg/kg
Mono-ornithine Keto-glutarate [Example 1],Dose at/from which active in colic distension,colic distension in rat [1],1 mg/kg
Ornithine and Arginine Keto-glutarate [Example 4],Mean number of abdominal cramps ± standard error,colic distension in rat [1]; 1 mg/kg p.o.,18 ± 2
Ornithine and Glutamine Keto-glutarate [Example 5],Dose at/from which active in colic distension,colic distension in rat [1],≥ 1 mg/kg
